Broadly, the inhibition is how much of the control response was suppressed.

Experiment [1] concerns human hair follicles. In words: tissue or blood. In kind it is cell-based. To be noted: read-out: inhibition of oxygen consumption by the follicles.
Experimental: Follicles were isolated from human facelift skin and grown in culture according to the methods described (Philpott et al J.Cell.Sci.97: pp 463-470 1990). For the oxygen consumption experiments a Clarke electrode apparatus (Tank Brothers Limited, Cambridge, England) was used.
The equipment was set up in accordance with the manufacturers instructions, the temperature of the cell being maintained at 37° C. using a circulating water bath. The output of the electrode was recorded using Perkin Elmer Turbochrom 4 data logging software.
The apparatus contains a Teflon membrane in the cell which was changed daily and the cell calibrated and prepared for use as follows. […] After recording this new ‘zero oxygen’ baseline the medium was reoxygenated by bubbling air through and the new baseline recorded. […]
After calibration, a fresh 2 ml sample of William's E medium gassed with 5% carbon dioxide in air was added, the plunger inserted into the cell ensuring that no air bubble was trapped, and the output from the cell recorded to give a rate for oxygen consumption of the cell. […] The new rate of oxygen consumption was recorded for a sufficient time as to enable its accurate determination. […]
From the calibration of the electrode, a curve was derived from which a baseline reading corresponding to zero oxygen level could be derived. […]
The subject of experiment [2] is human hair follicles. In words: Evolution of radiolabelled CO2 from radiolabelled substrate by cultured hair follicles. Type of experiment: cell-based. As to conditions: five follicles per tube, 37° C. As for the experimental part: Hair follicles were isolated from human scalp skin obtained from four different female subjects; hair follicles were isolated from human scalp skin and placed into a 6 well culture plate at a density of 15 follicles/well in 5 mL complete Williams E medium containing penicillin (50 μg/mL), streptomycin (50 IU/mL), L-glutamine (2 mM), hydrocortisone (10 ng/mL) and insulin (10 μg/mL). In addition a cocktail of amino acids consisting of arginine (0.45 mM) proline (1 mM), glycine (2.6 mM) and alanine (1 mM) was also added since these are though to improve the maintenance of hair follicles in vitro. After an overnight incubation (37° C., 5% CO2 in air) to ensure continued growth following the isolation procedure, follicles were cut to a uniform length and incubated until required.
For each experimental time point, five follicles were transferred to each of 3 eppendorf tubes in triplicate with 10 μL medium. […] After the seals had been removed the medium was sampled for counting the remaining radioactivity (3×10 μL). The KOH solution was analysed by liquid scintillation counting (Beckman LS 60001C) after addition of 18 mL Hionic Fluor (Packard).
Results from the mean of each triplicate control were subtracted from the corresponding mean from the experimental results. These combined results were then analysed by regression. […]

“Also recorded” adds a separate entry of the source. Structures can show the parent of a compound that is named as a salt.

Take `C[C@]12CC[C@H]3[C@@H](CC[C@]4(O)C[C@@H](O)CC[C@]34C=O)[C@@]1(O)CC[C@@H]2C1=CC(=O)OC1` [strophanthidin, Strophanthidin]: the inhibition at 100 µM in the experiment on human hair follicles [1] (0.1 mM strophanthidin, 160 follicles in 2 ml medium, 37° C.) was 76%.

As to `O=C(O)CC(O)(CC(=O)O)C(=O)O` [citrate, [1,5-^14C]-sodium citrate], the “average production of CO2 evolved from metabolism of citrate” value in the experiment on human hair follicles [2] ([1,5-14C]-sodium citrate, about 3 μCi in 100 μL medium, up to 12 h) was 0.23 (±0.04) μmol CO2. In addition, the “uptake and metabolism by hair follicles (radiolabelled CO2 evolution), result in words” value in the experiment with human hair follicles [2] (radiolabelled substrate in medium) is “linear increase in the amount of CO2 evolved; also recorded: taken up into hair follicles and used as an energy source”.

`[N-]=[N+]=[N-]` [sodium azide]: the inhibition at 2000 µM in the experiment with human hair follicles [1] lay within 54 to 87%.

The record behind these values is patent US20020031483A1, “HAIR TREATMENT COMPOSITION COMPRISING A SUGAR OR CARBOHYDRATE FOR THE PURPOSES OF PARTICIPATING IN OXYGEN CONSUMPTION OF A HAIR METHOD AND USE” (priority 1998, published 2002).
